According to ChEMBL document CHEMBL1201862, “PubChem BioAssay data set” (2004):
Counter-ions that a name gives are not always drawn. Active and inactive are the calls of the source.

Experiments:
[1] = HEK293T cell cytotoxicity, dose response, cytotoxicity control for HIV Vif inhibitor project, cherry-picks (AID 652208); type: functional, cell-based
[2] = molecular target: T1, Trace amine-associated receptor 1 (Homo sapiens, UniProt Q96RJ0); experiment: Fluorescence-based cell-based high throughput dose response assay to identify agonists of the human trace amine associated receptor 1 (TAAR1).; type: functional
T1 sequence (Q96RJ0 whole entry): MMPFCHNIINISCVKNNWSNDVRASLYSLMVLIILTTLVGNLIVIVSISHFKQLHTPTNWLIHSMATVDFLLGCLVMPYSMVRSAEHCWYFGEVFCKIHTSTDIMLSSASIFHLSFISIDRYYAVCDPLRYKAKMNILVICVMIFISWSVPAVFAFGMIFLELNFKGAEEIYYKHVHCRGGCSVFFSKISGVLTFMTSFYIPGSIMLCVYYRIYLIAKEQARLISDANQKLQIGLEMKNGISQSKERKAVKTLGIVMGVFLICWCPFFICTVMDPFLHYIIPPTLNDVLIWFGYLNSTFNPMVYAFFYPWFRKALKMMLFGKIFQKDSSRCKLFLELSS

[3] = molecular target: T1, Trace amine-associated receptor 1; experiment: Counterscreen for agonists of the human trace amine associated receptor 1 (hTAAR1): Fluorescence-based cell-based high throughput dose response assay to identify hTAAR1 agonist that also desensitize TAAR1 receptor response.; type: functional
cells [4] = type: functional, cell-based
cells [5] = type: functional, cell-based; remark: listed apart in the source
[6] = NIH/3T3 fibroblast cytotoxicity, dose response, cytotoxicity control for T. cruzi growth inhibitor project, cell-based, cherry-pick samples, set 2 (AID 651817); type: functional; settings: NIH3T3
[7] = molecular target: T2, Replicative DNA helicase DnaB (Mycobacterium tuberculosis, UniProt P9WMR3); experiment: DnaB intein splicing inhibitors, dose response, biochemical, cell-free fluorescence (AID 449749); type: functional
T2 sequence (P9WMR3 whole entry): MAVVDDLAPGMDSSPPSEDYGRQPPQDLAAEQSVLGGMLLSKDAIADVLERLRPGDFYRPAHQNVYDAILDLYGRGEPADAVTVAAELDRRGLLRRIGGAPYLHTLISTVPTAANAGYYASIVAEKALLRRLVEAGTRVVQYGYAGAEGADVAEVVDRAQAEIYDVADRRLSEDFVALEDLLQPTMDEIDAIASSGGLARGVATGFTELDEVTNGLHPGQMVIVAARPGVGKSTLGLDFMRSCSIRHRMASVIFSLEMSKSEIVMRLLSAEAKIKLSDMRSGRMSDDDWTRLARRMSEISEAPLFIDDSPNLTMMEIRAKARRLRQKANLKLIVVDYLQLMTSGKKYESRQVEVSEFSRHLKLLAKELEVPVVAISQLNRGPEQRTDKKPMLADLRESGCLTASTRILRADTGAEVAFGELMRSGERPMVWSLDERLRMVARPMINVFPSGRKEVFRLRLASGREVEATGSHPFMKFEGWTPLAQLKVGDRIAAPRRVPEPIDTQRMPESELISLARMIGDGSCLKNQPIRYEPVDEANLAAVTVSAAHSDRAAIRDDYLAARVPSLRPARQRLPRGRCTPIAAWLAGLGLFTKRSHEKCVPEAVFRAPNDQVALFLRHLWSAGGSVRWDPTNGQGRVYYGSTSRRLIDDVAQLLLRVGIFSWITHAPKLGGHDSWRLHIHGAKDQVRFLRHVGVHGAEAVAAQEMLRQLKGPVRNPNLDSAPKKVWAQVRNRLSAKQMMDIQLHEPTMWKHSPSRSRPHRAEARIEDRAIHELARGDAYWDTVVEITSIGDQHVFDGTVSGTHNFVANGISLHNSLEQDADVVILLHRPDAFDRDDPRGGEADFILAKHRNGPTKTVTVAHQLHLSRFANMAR

Protein RecA = molecular target: T3, Protein RecA (Mycobacterium tuberculosis, UniProt P9WHJ3); experiment: Fluorescence Cell-Free Homogeneous Dose Retest to Identify Inhibitors of RecA-Intein Splicing Activity. [Related pubchem assays (depositor defined):AID2097, AID2223, AID489010, AID492950]; type: functional
T3 sequence (P9WHJ3 whole entry): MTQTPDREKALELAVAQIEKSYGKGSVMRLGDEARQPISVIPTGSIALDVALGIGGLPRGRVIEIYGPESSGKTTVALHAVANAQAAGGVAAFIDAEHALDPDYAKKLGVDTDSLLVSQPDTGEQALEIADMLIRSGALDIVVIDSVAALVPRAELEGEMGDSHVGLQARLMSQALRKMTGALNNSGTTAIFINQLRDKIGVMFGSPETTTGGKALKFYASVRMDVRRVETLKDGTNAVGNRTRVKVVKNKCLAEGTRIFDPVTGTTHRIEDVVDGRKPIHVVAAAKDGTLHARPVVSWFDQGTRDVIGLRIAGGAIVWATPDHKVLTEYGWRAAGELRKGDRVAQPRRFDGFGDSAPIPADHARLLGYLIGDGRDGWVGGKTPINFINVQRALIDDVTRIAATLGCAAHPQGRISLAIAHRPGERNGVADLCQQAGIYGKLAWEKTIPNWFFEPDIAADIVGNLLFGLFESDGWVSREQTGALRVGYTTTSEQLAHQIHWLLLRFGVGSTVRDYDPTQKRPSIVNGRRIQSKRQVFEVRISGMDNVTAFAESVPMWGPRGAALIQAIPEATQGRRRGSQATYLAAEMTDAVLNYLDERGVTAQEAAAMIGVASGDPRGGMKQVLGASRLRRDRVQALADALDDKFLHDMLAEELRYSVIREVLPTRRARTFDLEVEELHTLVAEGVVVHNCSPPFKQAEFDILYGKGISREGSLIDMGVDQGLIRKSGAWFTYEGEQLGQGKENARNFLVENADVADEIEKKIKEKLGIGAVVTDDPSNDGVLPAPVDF

[8] = molecular target: T4, Sentrin-specific protease 8 (Homo sapiens, UniProt Q96LD8); type: functional
T4 sequence (Q96LD8 whole entry): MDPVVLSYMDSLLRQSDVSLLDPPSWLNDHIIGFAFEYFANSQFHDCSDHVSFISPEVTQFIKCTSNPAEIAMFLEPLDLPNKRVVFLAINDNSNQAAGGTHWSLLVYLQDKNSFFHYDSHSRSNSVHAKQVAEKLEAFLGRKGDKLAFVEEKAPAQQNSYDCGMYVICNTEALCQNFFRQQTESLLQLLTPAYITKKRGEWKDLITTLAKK

[9] = molecular target: T4, Sentrin-specific protease 8; type: functional; remark: listed apart in the source
Beta-lactamase [10] = molecular target: Beta-lactamase (Salmonella choleraesuis (strain SC-B67), UniProt Q5J463); experiment: Epi-absorbance-based counterscreen for selective VIM-2 inhibitors: dose response biochemical high throughput screening assay to identify inhibitors of TEM-1 serine-beta-lactamase.
Beta-lactamase (Salmonella choleraesuis (strain SC-B67), UniProt Q5J463), sequence (Q5J463 whole entry): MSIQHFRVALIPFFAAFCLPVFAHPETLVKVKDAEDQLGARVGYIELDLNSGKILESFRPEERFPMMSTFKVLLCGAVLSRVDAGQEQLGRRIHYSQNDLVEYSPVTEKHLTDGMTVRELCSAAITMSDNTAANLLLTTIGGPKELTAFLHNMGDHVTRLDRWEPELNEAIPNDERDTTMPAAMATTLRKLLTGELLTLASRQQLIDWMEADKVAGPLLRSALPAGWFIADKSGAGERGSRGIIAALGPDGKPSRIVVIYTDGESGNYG

Beta-lactamase [11] = molecular target: T5, Beta-lactamase (Pseudomonas aeruginosa, UniProt Q79MP6); experiment: […] counterscreen for selective VIM-2 inhibitors: dose response biochemical high throughput screening assay to identify inhibitors of IMP-1 metallo-beta-lactamase.
T5 sequence (Q79MP6 whole entry): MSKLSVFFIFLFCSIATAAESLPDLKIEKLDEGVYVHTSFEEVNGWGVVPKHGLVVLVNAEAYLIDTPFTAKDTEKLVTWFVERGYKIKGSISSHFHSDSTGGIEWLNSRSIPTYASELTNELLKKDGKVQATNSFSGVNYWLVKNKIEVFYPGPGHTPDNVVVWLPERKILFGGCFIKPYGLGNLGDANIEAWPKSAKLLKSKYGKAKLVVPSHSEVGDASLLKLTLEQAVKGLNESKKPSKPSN

Beta-lactamase [12] = molecular target: T5, Beta-lactamase; experiment: IMP-1 metallo-beta-lactamase inhibitors, dose response, selectivity assay for VIM-2 inhibitor project, biochemical, epi-absorbance (AID 1920)
Beta Lactamase [13] = molecular target: T6, Beta Lactamase (Pseudomonas aeruginosa, UniProt Q932Y6); experiment: VIM-2 inhibitor FRET-based artefact check, dose response, artefact control for selective VIM-2 inhibitor project, biochemical, FRET readout, CCF2 substrate (AID 1926)
T6 sequence (Q932Y6 whole entry): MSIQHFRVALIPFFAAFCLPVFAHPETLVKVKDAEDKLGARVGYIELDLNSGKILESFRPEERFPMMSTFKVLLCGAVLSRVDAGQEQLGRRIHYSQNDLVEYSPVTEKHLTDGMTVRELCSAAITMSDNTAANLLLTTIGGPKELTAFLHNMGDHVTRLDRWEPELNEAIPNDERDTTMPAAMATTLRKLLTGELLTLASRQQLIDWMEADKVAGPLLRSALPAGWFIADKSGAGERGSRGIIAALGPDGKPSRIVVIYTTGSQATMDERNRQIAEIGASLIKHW

Beta Lactamase [14] = molecular target: T6, Beta Lactamase; experiment: VIM-2 metallo-beta-lactamase inhibitor potency, dose response, biochemical, epi-absorbance readout, selective inhibitors (AID 1919)
Mu-type opioid receptor = Mu-type opioid receptor (Homo sapiens, UniProt P35372); type: functional, cell-based;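 also: U2OS cells with beta-arrestin recruitment to OPRM1 by beta-gal complementation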
Mu-type opioid receptor, sequence (P35372 whole entry): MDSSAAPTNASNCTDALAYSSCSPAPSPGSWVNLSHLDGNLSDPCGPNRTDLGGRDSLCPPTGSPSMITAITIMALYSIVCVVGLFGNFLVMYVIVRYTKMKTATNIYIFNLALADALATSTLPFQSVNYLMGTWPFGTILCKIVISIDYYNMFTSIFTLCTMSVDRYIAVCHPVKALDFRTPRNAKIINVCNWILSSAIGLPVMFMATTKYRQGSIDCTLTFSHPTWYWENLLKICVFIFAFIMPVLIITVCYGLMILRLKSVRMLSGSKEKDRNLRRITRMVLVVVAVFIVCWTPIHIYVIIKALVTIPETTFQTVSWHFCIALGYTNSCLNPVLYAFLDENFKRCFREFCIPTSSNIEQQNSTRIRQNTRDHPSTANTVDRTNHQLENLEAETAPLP

[15] = molecular target: 5-hydroxytryptamine receptor 2A (Mus musculus, UniProt P35363); type: functional, cell-based;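 also: CHO-K1 cells with tagged receptor and beta-arrestin; agonist potency measured as compound-induced activation of the receptor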
5-hydroxytryptamine receptor 2A, sequence (P35363 whole entry): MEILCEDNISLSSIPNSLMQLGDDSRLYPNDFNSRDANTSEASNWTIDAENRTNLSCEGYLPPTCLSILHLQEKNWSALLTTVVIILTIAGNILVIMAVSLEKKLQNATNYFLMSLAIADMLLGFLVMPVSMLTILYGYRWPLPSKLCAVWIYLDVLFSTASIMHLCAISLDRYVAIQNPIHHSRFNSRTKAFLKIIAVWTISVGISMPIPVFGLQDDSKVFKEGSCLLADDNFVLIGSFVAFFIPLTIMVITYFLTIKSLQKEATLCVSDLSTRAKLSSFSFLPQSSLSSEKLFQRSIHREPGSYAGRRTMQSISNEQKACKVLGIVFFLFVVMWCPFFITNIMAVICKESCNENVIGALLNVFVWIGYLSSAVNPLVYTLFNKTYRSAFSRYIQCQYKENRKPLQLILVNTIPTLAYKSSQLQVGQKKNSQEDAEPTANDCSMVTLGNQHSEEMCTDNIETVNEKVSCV

Cc1ccc(/C=C2/CNC/C(=C/c3ccc(C)cc3)C2=O)cc1
AC50 [1]: 10.3 µM (active)

O=C(CCCCl)N1CCc2[nH]c3ccccc3c2C1
EC50 [2]: 0.492 µM (active)
IC50 [3]: 2.05 µM (active)
IC50 (cells [4]): > 29.9 µM (inactive)
EC50 (cells [5]): > 29.9 µM (inactive)

C[C@H](CO)N1C[C@H](C)[C@H](CN(C)Cc2ccc(Cl)c(Cl)c2)Oc2c(NC(=O)Nc3ccc(C(F)(F)F)cc3)cccc2C1=O
AC50 [6]: 12.9 µM (active)

Cc1cc(=O)n(-c2ccc(O)cc2)[nH]1
AC50 [7]: 2.3 µM (active)
EC50 (Protein RecA): 0.774 µM (active)
IC50 [8]: 19.1 µM (active)
IC50 [9]: 17.2 µM (active)

O=C(O)COc1ccccc1/C=N/n1c(S)nnc1C1CCCCC1
IC50 (Beta-lactamase [10]): > 59.6 µM (inactive)
IC50 (Beta-lactamase [11]): > 59.6 µM (inactive)
IC50 (Beta-lactamase [12]): > 59.6 µM (inactive)
IC50 (Beta Lactamase [13]): 8.62 µM (active)
IC50 (Beta Lactamase [14]): 23.1 µM (inactive)

CCCN1CCC[C@@H](c2cccc(O)c2)C1 [PRECLAMOL HYDROCHLORIDE]
EC50 (Mu-type opioid receptor): 92.4 µM (inactive)
EC50 [15]: 76 µM (inactive)
